Laboratory results reported in patent US20240376090A1, “ISOXAZOLE DERIVATIVES AS MODULATORS OF THE 5-HT2A SEROTONIN RECEPTOR USEFUL FOR THE TREATMENT OF DISORDERED RELATED THERETO” (Arena Pharmaceuticals, Inc., priority 2020, published 2024).

molecular target: 5-HT2A receptor (Homo sapiens (Human), UniProt P28223); experiment: Radioligand binding assay ([3H]5-HT competition), 5-HT2A; conditions: [3H]5-HT radioligand, membranes of HEK293 cells expressing recombinant 5-HT2A; Ki from IC50 by Cheng-Prusoff; read-out: 5-HT2A serotonin binding Ki value
Sequence (P28223 whole entry): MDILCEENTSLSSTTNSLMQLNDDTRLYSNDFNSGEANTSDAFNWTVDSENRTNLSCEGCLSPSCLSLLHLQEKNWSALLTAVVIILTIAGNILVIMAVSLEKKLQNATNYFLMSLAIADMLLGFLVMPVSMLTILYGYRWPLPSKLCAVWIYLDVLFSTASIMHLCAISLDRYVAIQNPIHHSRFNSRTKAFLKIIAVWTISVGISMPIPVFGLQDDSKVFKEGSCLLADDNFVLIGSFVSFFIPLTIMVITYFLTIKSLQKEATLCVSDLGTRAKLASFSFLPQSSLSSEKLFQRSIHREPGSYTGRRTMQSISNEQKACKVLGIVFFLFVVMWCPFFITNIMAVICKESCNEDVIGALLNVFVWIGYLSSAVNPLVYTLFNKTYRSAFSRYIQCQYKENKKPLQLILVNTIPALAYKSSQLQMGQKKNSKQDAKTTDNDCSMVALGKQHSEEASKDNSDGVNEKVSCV
Experimental: Competition binding experiments consisted of addition of 5 μL of serially diluted test compound, 50 μL of radioligand stock diluted in Assay Buffer (20 mM HEPES, pH 7.4, 10 mM MgCl2), and 145 μL of diluted membrane expressing the receptor of interest to 96-well microtiter plates, which were then incubated for one hour at room temperature. Assay incubations were terminated by rapid filtration through Perkin Elmer GF/C filtration plates under vacuum pressure using a 96-well Packard filtration apparatus, followed by washing the filter plates several times with ice cold Assay Buffer. Plates were then dried at 45° C. for a minimum of four hours. Finally, 25 μL of BetaScint scintillation cocktail was added to each well and the plates were counted in a Packard TopCount scintillation counter. In each competition study, test compounds were assayed at 10 concentrations with three replicates at each test concentration. Dose-response curves were constructed to determine IC50 values and these were converted to corresponding Ki values using the Cheng-Prusoff equation.

Going from `Cc1noc(C)c1-c1cc(NC(=O)C2CC2)ccc1OCCN1CCN(C)C(=O)C1` [Compound 156, N-[3-(3,5-dimethylisoxazol-4-yl)-4-[2-(4-methyl-3-oxo-piperazin-1-yl)ethoxy]phenyl]cyclopropanecarboxamide] to `CC(=O)N1CCN(CCOc2ccc(NC(=O)C3CC3)cc2-c2c(C)noc2C)CC1` [Compound 168, N-[4-[2-(4-acetylpiperazin-1-yl)ethoxy]-3-(3,5-dimethylisoxazol-4-yl)phenyl]cyclopropanecarboxamide], the Ki falls from 145 nM to 12.2 nM (12-fold). The second binds more tightly here.

Going from `Cc1noc(C)c1-c1cc(N(C)C(=O)C2CC2)ccc1OC[C@H]1CCCCN1` [Compound 236, N-[3-(3,5-dimethylisoxazol-4-yl)-4-[[(2R)-2-piperidyl]methoxy]phenyl]-N-methyl-cyclopropanecarboxamide] to `Cc1noc(C)c1-c1cc(NC(=O)[C@@H]2C[C@H]2F)ccc1OC[C@H]1CCCCN1` [Compound 190, (1S,2R)—N-(3-(3,5-dimethylisoxazol-4-yl)-4-(((R)-piperidin-2-yl)methoxy)phenyl)-2-fluorocyclopropane-1-carboxamide], the Ki falls from 63900 nM to 1.19 nM (54000-fold). The second binds more tightly here.

Compared with `Cc1noc(C)c1-c1cc(NC(=O)c2cnn(C)c2C)ccc1OC[C@H]1CCCCN1` [Compound 211, (R)—N-(3-(3,5-dimethylisoxazol-4-yl)-4-(piperidin-2-ylmethoxy)phenyl)-1,5-dimethyl-1H-pyrazole-4-carboxamide], `Cc1ncsc1C(=O)Nc1ccc(OC[C@H]2CCCCN2)c(-c2c(C)noc2C)c1` [Compound 193, (R)—N-(3-(3,5-dimethylisoxazol-4-yl)-4-(piperidin-2-ylmethoxy)phenyl)-4-methylthiazole-5-carboxamide] is 15-fold lower in Ki: 40.9 nM for the first, 2.69 nM for the second. The second binds more tightly here.

Going from `COC1(CC(=O)Nc2ccc(OC[C@H]3CCCCN3)c(-c3c(C)noc3C)c2)CCC1` [Compound 205, (R)—N-(3-(3,5-dimethylisoxazol-4-yl)-4-(piperidin-2-ylmethoxy)phenyl)-2-(1-methoxycyclobutyl)acetamide] to `Cc1noc(C)c1-c1cc(NC(=O)C[C@@H]2CCOC2)ccc1OC[C@H]1CCCCN1` [Compound 201, N-(3-(3,5-dimethylisoxazol-4-yl)-4-(((R)-piperidin-2-yl)methoxy)phenyl)-2-((S)-tetrahydrofuran-3-yl)acetamide], the Ki falls from 105 nM to 11.9 nM (8.8-fold). The second binds more tightly here.

Going from `Cc1noc(C)c1-c1cc(NC(=O)c2cccc(C(F)(F)F)c2)ccc1OCCN1CCOCC1` [Compound 165, N-[3-(3,5-dimethylisoxazol-4-yl)-4-(2-morpholinoethoxy)phenyl]-3-(trifluoromethyl)benzamide] to `Cc1noc(C)c1-c1cc(NC(=O)C2CC2)ccc1OCCN1CCOCC1` [Compound 166, N-[3-(3,5-dimethylisoxazol-4-yl)-4-(2-morpholinoethoxy)phenyl]cyclopropanecarboxamide], the Ki rises from 1.08 nM to 6.54 nM (6.1-fold).

`Cc1noc(C)c1-c1cc(NC(=O)C2(F)CC2)ccc1O[C@H]1CCNC1` [Compound 239, (S)—N-(3-(3,5-dimethylisoxazol-4-yl)-4-(pyrrolidin-3-yloxy)phenyl)-1-fluorocyclopropane-1-carboxamide] and `Cc1noc(C)c1-c1cc(NC(=O)C2(F)CC2)ccc1O[C@@H]1CCCNC1` [Compound 235, (R)—N-(3-(3,5-dimethylisoxazol-4-yl)-4-(piperidin-3-yloxy)phenyl)-1-fluorocyclopropane-1-carboxamide] are within 1.5-fold of each other in Ki: 59.4 nM for the first, 45.2 nM for the second.

Going from `COCCNCCOc1ccc(NC(=O)C2(F)CC2)cc1-c1c(C)noc1C` [Compound 237, N-[3-(3,5-dimethylisoxazol-4-yl)-4-[2-(2-methoxyethylamino)ethoxy]phenyl]-1-fluoro-cyclopropanecarboxamide] to `Cc1noc(C)c1-c1cc(NC(=O)C2(F)CC2)ccc1OCCN1C[C@@H]2C[C@H]1CO2` [Compound 162, N-[3-(3,5-dimethylisoxazol-4-yl)-4-[2-[(1S,4S)-2-oxa-5-azabicyclo[2.2.1]heptan-5-yl]ethoxy]phenyl]-1-fluoro-cyclopropanecarboxamide], the Ki rises from 1.14 nM to 4.7 nM (4.1-fold).

Compared with `Cc1noc(C)c1-c1cc(NC(=O)c2ccncc2)ccc1OCCN1CCCC1` [Compound 102, N-(3-(3,5-dimethylisoxazol-4-yl)-4-(2-(pyrrolidin-1-yl)ethoxy)phenyl)isonicotinamide], `Cc1noc(C)c1-c1cc(NC(=O)c2cc(Cl)ccn2)ccc1OCCN1CCCC1` [Compound 105, 4-chloro-N-(3-(3,5-dimethylisoxazol-4-yl)-4-(2-(pyrrolidin-1-yl)ethoxy)phenyl)picolinamide] is 30-fold lower in Ki: 119 nM for the first, 3.94 nM for the second. The second binds more tightly here.

Going from `Cc1noc(C)c1-c1cc(NC(=O)C2CC2)ccc1OCCN1CCC(CC(=O)O)CC1` [Compound 158, 2-[1-[2-[4-(cyclopropanecarbonylamino)-2-(3,5-dimethylisoxazol-4-yl)phenoxy]ethyl]-4-piperidyl]acetic acid] to `CO[C@@H]1CCN(CCOc2ccc(NC(=O)C3CC3)cc2-c2c(C)noc2C)C1` [Compound 145, (R)—N-(3-(3,5-dimethylisoxazol-4-yl)-4-(2-(3-methoxypyrrolidin-1-yl)ethoxy)phenyl)cyclopropanecarboxamide], the Ki falls from 233 nM to 5.51 nM (42-fold).

`Cc1noc(C)c1-c1cc(NC(=O)c2ccccc2)ccc1OCCN1C[C@@H]2C[C@H]1CO2` [Compound 161, N-[3-(3,5-dimethylisoxazol-4-yl)-4-[2-[(1S,4S)-2-oxa-5-azabicyclo[2.2.1]heptan-5-yl]ethoxy]phenyl]benzamide] and `Cc1noc(C)c1-c1cc(NC(=O)c2ccnn2C)ccc1OCCN1C[C@@H]2C[C@H]1CO2` [Compound 163, N-[3-(3,5-dimethylisoxazol-4-yl)-4-[2-[(1S,4S)-2-oxa-5-azabicyclo[2.2.1]heptan-5-yl]ethoxy]phenyl]-2-methyl-pyrazole-3-carboxamide] are within 1.5-fold of each other in Ki: 6.4 nM for the first, 6.73 nM for the second.

Going from `Cc1noc(C)c1-c1cc(NC(=O)C2CC2)ccc1O[C@@H]1CCNC1` [Compound 181, (R)—N-(3-(3,5-dimethylisoxazol-4-yl)-4-(pyrrolidin-3-yloxy)phenyl)cyclopropanecarboxamide] to `Cc1noc(C)c1-c1cc(NC(=O)C2CC2)ccc1O[C@@H]1CCCNC1` [Compound 179, (R)—N-(3-(3,5-dimethylisoxazol-4-yl)-4-(piperidin-3-yloxy)phenyl)cyclopropanecarboxamide], the Ki rises from 10 nM to 85.9 nM (8.6-fold).

Going from `CCN(CC)CCOc1ccc(NC(=O)C2CC2)cc1-c1c(C)noc1C` [Compound 153, N-(4-(2-(diethylamino)ethoxy)-3-(3,5-dimethylisoxazol-4-yl)phenyl)cyclopropanecarboxamide] to `CCCN(C)CCOc1ccc(NC(=O)C2CC2)cc1-c1c(C)noc1C` [Compound 150, N-(3-(3,5-dimethylisoxazol-4-yl)-4-(2-(methyl(propyl)amino)ethoxy)phenyl)cyclopropanecarboxamide], the Ki falls from 109 nM to 13.5 nM (8.1-fold).

`Cc1noc(C)c1-c1cc(NC(=O)C2CC2)ccc1OCC1CCN1` (stereo not shown) [Compound 174, N-[4-(azetidin-2-ylmethoxy)-3-(3,5-dimethylisoxazol-4-yl)phenyl]cyclopropanecarboxamide] and `Cc1noc(C)c1-c1cc(NC(=O)c2cnoc2)ccc1OC[C@H]1CCCCN1` [Compound 182, N-[3-(3,5-dimethylisoxazol-4-yl)-4-[[(2R)-2-piperidyl]methoxy]phenyl]isoxazole-4-carboxamide] are within 1.5-fold of each other in Ki: 48 nM for the first, 61.5 nM for the second.

Going from `Cc1noc(C)c1-c1cc(NC(=O)C2CC2)ccc1OCCN1CCC2(CC1)CC(=O)N2` [Compound 140, N-(3-(3,5-dimethylisoxazol-4-yl)-4-(2-(2-oxo-1,7-diazaspiro[3.5]nonan-7-yl)ethoxy)phenyl)cyclopropanecarboxamide] to `Cc1noc(C)c1-c1cc(NC(=O)C2CC2)ccc1OCCN1CCC12COC2` [Compound 157, N-[3-(3,5-dimethylisoxazol-4-yl)-4-[2-(6-oxa-1-azaspiro[3.3]heptan-1-yl)ethoxy]phenyl]cyclopropanecarboxamide], the Ki rises from 228 nM to 2070 nM (9.1-fold).

First: CCOC1CC1C(=O)Nc1ccc(OCCN2CCC2)c(-c2c(C)noc2C)c1 (stereo not shown) [Compound 131, N-(4-(2-(azetidin-1-yl)ethoxy)-3-(3,5-dimethylisoxazol-4-yl)phenyl)-2-ethoxycyclopropane-1-carboxamide]
Second: CCOC1CC1C(=O)Nc1ccc(OCCN2CCOCC2)c(-c2c(C)noc2C)c1 (stereo not shown) [Compound 135, N-[3-(3,5-dimethylisoxazol-4-yl)-4-(2-morpholinoethoxy)phenyl]-2-ethoxy-cyclopropanecarboxamide]
The Ki of the first is 3.9-fold higher: 77.7 nM for the first, 20.1 nM for the second.

First: Cc1noc(C)c1-c1cc(NC(=O)Cc2cncc(F)c2)ccc1OCCN1CCC1 [Compound 128, N-(4-(2-(azetidin-1-yl)ethoxy)-3-(3,5-dimethylisoxazol-4-yl)phenyl)-2-(5-fluoropyridin-3-yl)acetamide]
Second: COc1ccc(CC(=O)Nc2ccc(OCCN3CCC3)c(-c3c(C)noc3C)c2)cc1 [Compound 126, N-(4-(2-(azetidin-1-yl)ethoxy)-3-(3,5-dimethylisoxazol-4-yl)phenyl)-2-(4-methoxyphenyl) acetamide]
The Ki of the first is 2.8-fold higher: 14.6 nM for the first, 5.28 nM for the second. The second binds more tightly here.

Going from `Cc1noc(C)c1-c1cc(NC(=O)[C@@H]2C[C@H]2F)ccc1OCCN1CCCC1` [Compound 106, (1S,2R)—N-[3-(3,5-dimethylisoxazol-4-yl)-4-(2-pyrrolidin-1-ylethoxy)phenyl]-2-fluoro-cyclopropanecarboxamide] to `Cc1noc(C)c1-c1cc(NC(=O)c2ncsc2C)ccc1OC[C@H]1CCCCN1` [Compound 188, (R)—N-(3-(3,5-dimethylisoxazol-4-yl)-4-(piperidin-2-ylmethoxy)phenyl)-5-methylthiazole-4-carboxamide], the Ki rises from 1.13 nM to 4.5 nM (4-fold). The first binds more tightly here.
